# According to US8329904B2, “Azacyclic derivatives” (Hoffmann-La Roche Inc., priority 2009, dated 2012):
# Biological target: T1, human HSL (Homo sapiens, UniProt Q05469)
# T1 construct: overlapping PCR to generate a full length human HSL ORF with a 3′-His6 tag; His6 (C); made in house; host or cells: High 5 insect cells (baculovirus, pFast-BAC)
# T1 sequence (Q05469 1-1076): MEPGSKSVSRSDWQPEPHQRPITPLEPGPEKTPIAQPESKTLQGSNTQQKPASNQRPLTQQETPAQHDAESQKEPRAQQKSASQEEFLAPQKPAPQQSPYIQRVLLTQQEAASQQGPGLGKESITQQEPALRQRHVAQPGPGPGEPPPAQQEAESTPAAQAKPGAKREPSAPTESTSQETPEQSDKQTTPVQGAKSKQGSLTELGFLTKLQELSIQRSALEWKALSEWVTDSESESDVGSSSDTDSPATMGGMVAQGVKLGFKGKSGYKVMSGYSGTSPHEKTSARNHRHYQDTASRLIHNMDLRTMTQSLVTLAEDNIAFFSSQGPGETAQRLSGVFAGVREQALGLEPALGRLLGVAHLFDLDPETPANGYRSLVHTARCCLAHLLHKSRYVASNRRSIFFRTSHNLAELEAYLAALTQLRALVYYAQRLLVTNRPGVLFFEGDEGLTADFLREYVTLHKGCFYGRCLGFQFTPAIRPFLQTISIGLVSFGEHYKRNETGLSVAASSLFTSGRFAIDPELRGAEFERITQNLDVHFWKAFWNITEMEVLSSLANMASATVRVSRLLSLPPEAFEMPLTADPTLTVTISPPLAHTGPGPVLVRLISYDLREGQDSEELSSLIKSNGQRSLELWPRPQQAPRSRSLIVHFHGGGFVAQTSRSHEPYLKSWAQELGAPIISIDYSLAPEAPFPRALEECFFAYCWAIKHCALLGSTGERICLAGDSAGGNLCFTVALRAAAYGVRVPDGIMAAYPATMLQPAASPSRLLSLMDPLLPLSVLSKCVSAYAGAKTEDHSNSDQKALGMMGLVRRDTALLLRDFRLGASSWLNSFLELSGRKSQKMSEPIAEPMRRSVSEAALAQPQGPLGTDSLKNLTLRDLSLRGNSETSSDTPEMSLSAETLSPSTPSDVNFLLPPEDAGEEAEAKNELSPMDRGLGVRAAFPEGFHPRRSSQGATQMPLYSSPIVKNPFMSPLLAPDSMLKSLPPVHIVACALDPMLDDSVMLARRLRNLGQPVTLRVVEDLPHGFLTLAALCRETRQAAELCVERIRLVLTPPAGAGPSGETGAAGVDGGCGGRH
# Test: Human Hormone-Sensitive Lipase (HSL) Enzyme Inhibition Assay
# Assay type: biochemical
# Settings: colorimetric assay, 2,3-dimercapto-1-propanol tributyrate (DMPT) substrate, 37° C. for 20 minutes, absorbance at 405 nm; read-out: HSL hum IC50
# Procedure, shortened: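 Colorimetric thioester hydrolysis: compounds in DMSO series mixed with DMPT (1.5 mM) in MOPS pH 7.2 with BSA, then baculovirus-expressed His6-tagged full-length human HSL added, 37° C, 20 min. DTNB plus detergents added, 15 min room temperature, absorbance at 405 nm.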
row,Compound,IC50 [nM]
1,"CC(C)(C)CC(=O)N1CCC2(CC1)CCN(c1ccc(C(O)C(F)(F)F)cc1)C2=O (stereo not drawn) [Example 165, 8-(3,3-Dimethyl-butyryl)-2-[4-(2,2,2-trifluoro-1-hydroxy-ethyl)-phenyl]-2,8-diaza-spiro[4.5]decan-1-one]",220
2,"CC(C)Oc1ccc(N2CCC3(CCN(S(=O)(=O)C4CC4)CC3)C2=O)cc1 [Example 95, 8-Cyclopropanesulfonyl-2-(4-isopropoxy-phenyl)-2,8-diaza-spiro[4.5]decan-1-one]",360
3,"O=C1N(c2cnc(OCC(F)(F)F)nc2)CCC12CCN(S(=O)(=O)c1ccccc1)CC2 [Example 118, 8-Benzenesulfonyl-2-[2-(2,2,2-trifluoro-ethoxy)-pyrimidin-5-yl]-2,8-diaza-spiro[4.5]decan-1-one]",470
4,"CCS(=O)(=O)c1ccc(N2CCC3(CCN(S(=O)(=O)CC(C)(C)C)CC3)C2=O)cc1 [Example 172, 8-(2,2-Dimethyl-propane-1-sulfonyl)-2-(4-ethanesulfonyl-phenyl)-2,8-diaza-spiro[4.5]decan-1-one]",770
5,"O=C(CC1CCC1)N1CCC2(CC1)CCN(c1ccc(OC(F)(F)F)cc1)C2=O [Example 216, 8-(2-Cyclobutyl-acetyl)-2-(4-trifluoromethoxy-phenyl)-2,8-diaza-spiro[4.5]decan-1-one]",250
6,"Cc1noc(C)c1S(=O)(=O)N1CCC2(CCN(c3ccc(C(O)C(F)(F)F)cc3)C2=O)CC1 (racemic) [Example 162, (rac)-8-(3,5-Dimethyl-isoxazole-4-sulfonyl)-2-[4-(2,2,2-trifluoro-1-hydroxy-ethyl)-phenyl]-2,8-diaza-spiro[4.5]decan-1-one]",120
7,"CC(C)CS(=O)(=O)N1CCC2(CCN(c3ccc(OCC(F)(F)F)cc3)C2=O)CC1 [Example 63, 8-(2-Methyl-propane-1-sulfonyl)-2-[4-(2,2,2-trifluoro-ethoxy)-phenyl]-2,8-diaza-spiro[4.5]decan-1-one]",210
8,"O=C1N(c2ccc(COCC3CC3)cc2)CCC12CCN(S(=O)(=O)c1ccccc1Cl)CC2 [Example 148, 8-(2-Chloro-benzenesulfonyl)-2-(4-cyclopropylmethoxymethyl-phenyl)-2,8-diaza-spiro[4.5]decan-1-ones]",90
9,"O=C1N(c2ccc(CC(F)(F)F)cc2)CCC12CCN(S(=O)(=O)c1ccccc1OC(F)(F)F)CC2 [Example 78, 2-[4-(2,2,2-Trifluoro-ethyl)-phenyl]-8-(2-trifluoromethoxy-benzenesulfonyl)-2,8-diaza-spiro[4.5]decan-1-one]",30
10,"CC(C)(C)CC(=O)N1CCC2(CC1)CCN(c1ccc(OCC(F)(F)F)cc1)C2=O [Example 120, 8-(3,3-Dimethyl-butyryl)-2-[4-(2,2,2-trifluoro-ethoxy)-phenyl]-2,8-diaza-spiro[4.5]decan-1-one]",600
11,"CCC(C)c1ccc(N2CCC3(CCN(S(=O)(=O)N4CCOCC4)CC3)C2=O)cc1 (stereo not drawn) [Example 44, 2-(4-sec-Butyl-phenyl)-8-(morpholine-4-sulfonyl)-2,8-diaza-spiro[4.5]decan-1-one]",100
12,"CC(C)CS(=O)(=O)N1CCC2(CCN(c3ccc(C(O)C(F)(F)F)cc3)C2=O)CC1 (stereo not drawn) [Example 167, 8-(isobutylsulfonyl)-2-(4-(2,2,2-trifluoro-1-hydroxyethyl)phenyl)-2,8-diazaspiro[4.5]decan-1-one]",70
13,"Cc1nc2ccc(N3CCC4(CCN(S(=O)(=O)c5ccccc5Cl)CC4)C3=O)cc2s1 [Example 127, 8-(2-Chloro-benzenesulfonyl)-2-(2-methyl-benzothiazol-6-yl)-2,8-diaza-spiro[4.5]decan-1-one]",60
14,"O=C1N(c2ccc(OC(F)(F)F)cc2)CCC12CCN(S(=O)(=O)CC1CCCO1)CC2 (stereo not drawn) [Example 214, 8-(Tetrahydro-furan-2-ylmethanesulfonyl)-2-(4-trifluoromethoxy-phenyl)-2,8-diaza-spiro[4.5]decan-1-one]",100
15,"CCc1ccc(N2CCC3(CCN(S(=O)(=O)c4ccc(C(F)(F)F)cc4Cl)CC3)C2=O)cc1 [Example 69, 8-(2-Chloro-4-trifluoromethyl-benzenesulfonyl)-2-(4-ethyl-phenyl)-2,8-diaza-spiro[4.5]decan-1-one]",310
16,"CC(C)(C)c1ccc(N2CCC3(CCN(S(=O)(=O)c4ccccc4)CC3)C2=O)cc1 [Example 3, 8-Benzenesulfonyl-2-(4-tert-butyl-phenyl)-2,8-diaza-spiro[4.5]decan-1-one]",30
17,"O=C1N(c2ccc(Cl)nc2)CCC12CCN(S(=O)(=O)c1ccccc1)CC2 [Example 11, 8-Benzenesulfonyl-2-(6-chloro-pyridin-3-yl)-2,8-diaza-spiro[4.5]decan-1-one]",1700
18,"O=C1N(c2ccc(OCC(F)(F)F)cc2)CCC12CCN(S(=O)(=O)c1ccccc1OC(F)(F)F)CC2 [Example 79, 2-[4-(2,2,2-Trifluoro-ethoxy)-phenyl]-8-(2-trifluoromethoxy-benzenesulfonyl)-2,8-diaza-spiro[4.5]decan-1-one]",40
19,"CCc1ccc(N2CCC3(CCN(S(=O)(=O)c4ccccc4S(C)(=O)=O)CC3)C2=O)cc1 [Example 52, 2-(4-Ethyl-phenyl)-8-(2-methanesulfonyl-benzenesulfonyl)-2,8-diaza-spiro[4.5]decan-1-one]",210
20,"O=C1N(c2ccc(OC(F)(F)F)cc2)CCC12CCN(S(=O)(=O)c1ccccc1Cl)CC2 [Example 1, 8-(2-Chloro-benzenesulfonyl)-2-(4-trifluoromethoxy-phenyl)-2,8-diaza-spiro[4.5]decan-1-one]",30

# Continued, values first:
row,IC50 [nM],Compound
1,100,"O=C(N1CCCCC1)N1CCC2(CC1)CCN(c1ccc(OC(F)(F)F)cc1)C2=O [Example 256, 8-(Piperidine-1-carbonyl)-2-(4-trifluoromethoxy-phenyl)-2,8-diaza-spiro[4.5]decan-1-one]"
2,160,"CCNS(=O)(=O)N1CCC2(CCN(c3ccc(OC(F)(F)F)cc3)C2=O)CC1 [Example 290, 1-Oxo-2-(4-trifluoromethoxy-phenyl)-2,8-diaza-spiro[4.5]decane-8-sulfonic acid ethylamide]"
3,100,"O=C1N(CCc2cccc(C(F)(F)F)c2)CCC12CCN(S(=O)(=O)c1ccccc1Cl)CC2 [Example 245, 8-(2-Chloro-benzenesulfonyl)-2-[2-(3-trifluoromethyl-phenyl)-ethyl]-2,8-diaza-spiro[4.5]decan-1-one]"
4,210,"O=C1N(CCc2ccccc2Cl)CCC12CCN(S(=O)(=O)c1ccccc1Cl)CC2 [Example 242, 8-(2-Chloro-benzenesulfonyl)-2-[2-(2-chloro-phenyl)-ethyl]-2,8-diaza-spiro[4.5]decan-1-one]"
5,400,"CCc1ccc(N2CCC3(CCN(C(=O)Nc4ccc(F)cc4)CC3)C2=O)cc1 [Example 258, 2-(4-Ethyl-phenyl)-1-oxo-2,8-diaza-spiro[4.5]decane-8-carboxylic acid (4-fluoro-phenyl)-amide]"
6,230,"COc1cccc(CCN2CCC3(CCN(S(=O)(=O)c4ccccc4Cl)CC3)C2=O)c1 [Example 244, 8-(2-Chloro-benzenesulfonyl)-2-[2-(3-methoxy-phenyl)-ethyl]-2,8-diaza-spiro[4.5]decan-1-one]"
7,70,"O=C1N(CCc2ccc(Cl)c(Cl)c2)CCC12CCN(S(=O)(=O)c1ccccc1Cl)CC2 [Example 248, 8-(2-Chloro-benzenesulfonyl)-2-[2-(3,4-dichloro-phenyl)-ethyl]-2,8-diaza-spiro[4.5]decan-1-one]"
8,400,"O=C1N(Cc2cccc(Cl)c2)CCC12CCN(S(=O)(=O)c1ccccc1Cl)CC2 [Example 235, 8-(2-Chloro-benzenesulfonyl)-2-(3-chloro-benzyl)-2,8-diaza-spiro[4.5]decan-1-one]"
9,400,"O=C(Nc1ccc(F)cc1)N1CCC2(CC1)CCN(c1ccc(OC(F)(F)F)cc1)C2=O [Example 259, 1-Oxo-2-(4-trifluoromethoxy-phenyl)-2,8-diaza-spiro[4.5]decane-8-carboxylic acid (4-fluoro-phenyl)-amide]"
10,70,"CC(C)CN(C)C(=O)N1CCC2(CC1)CCN(c1ccc(OC(F)(F)F)cc1)C2=O [Example 270, 1-Oxo-2-(4-trifluoromethoxy-phenyl)-2,8-diaza-spiro[4.5]decane-8-carboxylic acid isobutyl-methyl-amide]"
